We go through seven compounds from publication PMC7238241, “Lack of Correlation between In Vitro and In Vivo Studies on the Inhibitory Effects of (‒)-Sophoranone on CYP2C9 Is Attributable to Low Oral Absorption and Extensive Plasma Protein Binding of (‒)-Sophoranone” (Pharmaceutics, 2020).

Like-named read-outs stand apart in the source and are kept apart here.

In data set [1] the target is T1, CYP2A6 (Homo sapiens, UniProt P11509).
T1 construct: tissue Corning Life Sciences; host or cells: pooled human liver microsomes, 150 donors
T1 sequence (P11509 1-494): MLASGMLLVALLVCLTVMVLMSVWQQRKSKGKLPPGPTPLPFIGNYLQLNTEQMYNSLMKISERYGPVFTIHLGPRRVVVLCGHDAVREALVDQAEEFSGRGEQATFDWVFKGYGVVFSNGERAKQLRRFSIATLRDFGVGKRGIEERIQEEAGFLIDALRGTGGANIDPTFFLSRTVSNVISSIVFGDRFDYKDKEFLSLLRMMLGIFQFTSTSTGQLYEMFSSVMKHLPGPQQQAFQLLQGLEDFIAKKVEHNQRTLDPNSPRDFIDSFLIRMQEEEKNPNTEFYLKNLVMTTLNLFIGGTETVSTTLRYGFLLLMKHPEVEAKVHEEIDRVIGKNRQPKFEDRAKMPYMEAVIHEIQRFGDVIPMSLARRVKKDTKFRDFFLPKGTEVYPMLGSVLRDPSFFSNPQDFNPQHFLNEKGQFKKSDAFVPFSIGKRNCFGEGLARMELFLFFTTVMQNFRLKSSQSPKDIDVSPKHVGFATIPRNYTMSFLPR
Kind of data set: Reversible CYP2A6 inhibition, cocktail assay (coumarin 7-hydroxylase) in human liver microsomes. The class given is biochemical. Here is the method: (§1) The inhibitory effects of SPN on CYP1A2, CYP2A6, CYP2B6, CYP2C8, CYP2C9, CYP2C19, CYP2D6, CYP2E1, and CYP3A4 were evaluated in pooled human liver microsomes through the use of specific CYP probe substrates (cocktail assay), as previously described with a slight modification. Concentrations of each CYP probe in Table 1 were used close to their reported Km values.
(§2) Briefly, a 90-µL incubation mixture, including pooled human liver microsomes (final concentration 0.1 mg/mL), 50 mM phosphate buffer (pH 7.4), each CYP-probe substrate cocktail set, and SPN (0–50 μM), was pre-incubated for 5 min at 37 °C. SPN was dissolved in methanol and spiked into the incubation mixture to a final concentration of 0.5% methanol. All P450-selective substrates (except coumarin due to solubility) were dissolved in methanol and serially diluted with methanol to the required concentrations, and the organic solvent was subsequently evaporated under a gentle stream of N2 gas to minimize the effects of organic solvents on CYP activities. On the other hand, coumarin dissolved in 50 mM phosphate buffer (pH 7.4) was directly added into the mixed tube. The reaction was initiated by adding 10-µL aliquot of NADPH-generating system (1.3 mM NADP^+, 3.3 mM glucose 6-phosphate, 3.3 mM MgCl2, and 0.4 unit/mL glucose-6-phosphate dehydrogenase) before 15 min incubation at 37 °C in a shaking water bath. […]
(§3) The IC50 values were calculated via nonlinear least-squares regression analysis from logarithmic plots of inhibitor concentration versus percentage of activity remaining after inhibition, using SigmaPlot (ver. 14.0; Systat Software Inc, Chicago, IL, USA). The Ki values were determined from the equations for a single substrate single inhibitor model and the software available in the SigmaPlot Enzyme Kinetics module. Competitive, non-competitive, uncompetitive, or mixed inhibition models were evaluated and ranked according to the best fit based on Akaike Information Criterion (AIC) values. […]

Data set [2] is described as follows: Effects of SPN on the pharmacokinetics of diclofenac in rats. As to conditions: male, Sprague-Dawley, rat, plasma, po, 2 mg/kg, oral diclofenac 2 mg/kg, n = 6; for AUC(0-t): AUCt; for AUC(0-t) / AUC(0-inf) / Cmax / Tmax: rats; for Tmax: median (ranges); for half-life: t1/2, rats.
Method: (§4) The carotid arteries of each rat were cannulated with a polyethylene tube (Clay Adams, Franklin Lakes, NJ, USA) for blood sampling. Each rat was individually housed in a rat metabolic cage and allowed to recover from anesthesia for 4–5 h prior to the start of the experiment. […] SPN was suspended in dimethylsulfoxide:PEG400:distilled water (5:60:35, v/v/v) and administered by oral gavage at a dose of 75 mg/kg in a volume of 5 mL/kg. […] The blood samples were immediately centrifuged at 13,000× g for 5 min at 4 °C. The plasma samples were divided into two Eppendorf tubes by 50 μL and stored at −80 °C until LC-MS/MS analysis.
(§5) Briefly, 50 μL aliquots of plasma were extracted with 300 μL aliquots of acetonitrile containing chlorpropamide (internal standard), followed by LC-MS/MS (Shimadzu Corporation). Chromatographic separation was performed on a Phenomenex Luna C18 column (100 × 2.00 mm; 3.0 μm). The isocratic mobile phase consisted of 0.1% formic acid in distilled water (A) and 0.1% formic acid in acetonitrile (B) (45:55, v/v), with a flow rate of 0.3 mL/min. […] The data acquisition was computed using LabSolutions LCMS Ver.5.6 (Shimadzu Corporation).
(§6) Pharmacokinetic parameters were calculated by a non-compartmental analysis using WinNonlin Professional software (version 5.2, Pharsight Corp., Mountain View, CA, USA) that used the total area under the plasma concentration–time curve from time zero to infinity (AUC∞) or the last measured time (AUCt). The logarithmic trapezoidal rule was used during the declining plasma level phase and the linear trapezoidal rule was used for the rising plasma-level phase. The peak plasma concentration (Cmax) and time to reach Cmax (Tmax) were read directly from the experimental data. Statistically significant differences were recognized at p < 0.05.
Data set [3] is described as follows: in vivo. As to conditions: male, Sprague-Dawley, rat, po, 2 mg/kg.
Method: as §4, §5, §6
The conditions of data set [4]: male, Sprague-Dawley, rat, in vivo, po, 2 mg/kg.
Method: as §4, §5, §6
Data set [5] relates to CYP1A2. As to conditions: not in vivo because of high plasma protein binding; cited from earlier work.
The conditions of data set [6]: cited from earlier work.
Data set [7] is described as follows: Bi-directional Caco-2 cell permeability. The class given is in vitro ADME. As to conditions: human, Caco-2; 10 μM, 2 h, n = 3. How it is done:
Caco-2 cell permeability was assessed to predict the oral absorption of SPN. Cell culture and transport studies were performed as previously described. Briefly, for the bi-directional transport studies, the cells were seeded at a density of 1 × 10^5 cells/well, and the cell medium was replaced until they formed confluent monolayers. On the 25th day, the cell monolayers were washed with pre-warmed HBSS buffer. […] Before the experiment, the integrity of the cell monolayers was evaluated by measuring the transepithelial electrical resistance using a Millicell ohmmeter. After 2 h incubation at 37 °C, samples were withdrawn from both sides, respectively. All samples were stored at −80 °C until LC-MS/MS analysis, and all experiments were performed in triplicate.
The apparent permeability coefficient (Papp) was calculated using the following equation. Papp = (Vr/C0) × (1/A) × ([Drug]/t) where, Vr is the volume of medium in the receiver chamber, C0 is the donor compartment concentration at time zero, A is the area of the cell monolayer, t is the treatment time of the drug, and [Drug] is the drug concentration in the receiver chamber.

The target of data set [8] is T2, CYP2E1 (Homo sapiens, UniProt P05181).
T2 construct: tissue Corning Life Sciences; host or cells: pooled human liver microsomes, 150 donors
T2 sequence (P05181 whole entry): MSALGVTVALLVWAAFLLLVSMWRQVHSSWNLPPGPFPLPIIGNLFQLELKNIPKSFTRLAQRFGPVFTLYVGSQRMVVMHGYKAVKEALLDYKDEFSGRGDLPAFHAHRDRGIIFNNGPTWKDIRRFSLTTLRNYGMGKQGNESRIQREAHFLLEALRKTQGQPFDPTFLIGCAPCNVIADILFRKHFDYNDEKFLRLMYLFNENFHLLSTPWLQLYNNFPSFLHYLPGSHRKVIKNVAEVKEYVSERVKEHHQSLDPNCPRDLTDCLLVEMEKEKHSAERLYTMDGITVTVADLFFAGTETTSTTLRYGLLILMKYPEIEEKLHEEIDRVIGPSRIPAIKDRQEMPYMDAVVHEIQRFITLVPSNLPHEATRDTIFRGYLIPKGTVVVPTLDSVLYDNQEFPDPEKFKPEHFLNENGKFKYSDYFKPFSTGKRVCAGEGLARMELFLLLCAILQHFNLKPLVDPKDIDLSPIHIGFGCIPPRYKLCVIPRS
Kind of data set: Reversible CYP2E1 inhibition, cocktail assay (chlorzoxazone 6-hydroxylase) in human liver microsomes. The class given is biochemical. How it is done: as §1, §2, §3

For data set [9], the system named is CYP2C8. As to conditions: in humans; cited from earlier work.

Take `NCCc1c[nH]c2ccccc12` [Tryptamine, reference compound]: inhibition in data set [1] was half-maximal at 2.98 ± 0.635 µM (IC50).
With `O=C(O)Cc1ccccc1Nc1c(Cl)cc(O)cc1Cl` [4′-hydroxydiclofenac], in data set [2] (with oral SPN 75 mg/kg), the AUC(0-t) is 742 ng·h/mL, the AUC(0-inf) was 1130 ng·h/mL, the Cmax is 173 ± 40.8 ng/mL and the Tmax is 0.25 h. Besides, the half-life in data set [2] (with oral SPN 75 mg/kg) amounted to 4.93 ± 0.995 h. Further, in data set [2] (without SPN), the AUC(0-t) was 747 ng·h/mL, the AUC(0-inf) is 1140 ng·h/mL, the Cmax came to 180 ± 55.2 ng/mL and the Tmax was 0.167 h. For the same compound, the half-life in data set [2] (without SPN) stood at 4.63 ± 1.17 h.
With `O=C(O)Cc1ccccc1Nc1c(Cl)cccc1Cl` [Diclofenac], the AUC(0-t) in data set [3] (AUCt) is 1060 ng·h/mL. For the same compound, the AUC(0-inf) in data set [3] (AUC∞) is 1200 ng·h/mL. The compound also yielded a Cmax in [3] (Cmax) of 882 ± 245 ng/mL. Further, the Tmax in data set [3] (Tmax, median (ranges)) is 5 min. The half-life in data set [3] (t1/2) is 2.55 ± 1 h. The compound also yielded an AUCt in [4] of 69.4 ± 2.98 µg·min/mL.
For `Cc1c(Cl)cccc1Nc1ccccc1C(=O)O` [Tolfenamic acid], in [5], the “CYP1A2 inhibition in vitro” value is reported as “strongly inhibited CYP1A2 in vitro”. In [6], the plasma protein binding is recorded as 99.7%.
Take `CC(C)NCC(O)COc1cccc2ccccc12` (centres unmarked) [propranolol, reference compound]: the Papp B→A at 2 h, 10 µM in [7] turned out to be 21.5 ± 2.19 ×10⁻⁶ cm/s.
With `CCN(CC)C(=S)S` [Diethyldithiocarbamate, reference compound], half-maximal inhibition in [8] (IC50) was put at 12 ± 3.67 µM.
As to `CC(C)(O)c1ccccc1CC[C@@H](SCC1(CC(=O)O)CC1)c1cccc(/C=C/c2ccc3ccc(Cl)cc3n2)c1` [Montelukast], the plasma protein binding in data set [6] (reference not given) is given as > 99.7%. In addition, the “effect on the pharmacokinetics of the CYP2C8 substrates pioglitazone and rosiglitazone” value in [9] was “no effect”.
